In paper PMC4774911, “Biochemical Screening of Five Protein Kinases from Plasmodium falciparum against 14,000 Cell-Active Compounds” (PLoS ONE, 2016):
“And” between values parts separate entries of the source, which are not always exact repeats. Identical values can stand only once.

Columns and labels:
Test in all cases: biochemical
Set-up in all cases: endogenous in cells; host or cells: K562 cell extract; species or system K562 (extract); replicate k of n = 2 (each experiment ID is one independent experiment; two experiment IDs per compound)
Conditions in all cases: read-out: KDapp
[1] = biological target: EIF2AK4 (Homo sapiens, UniProt Q9P2K8)
[2] = biological target: WEE1 (Homo sapiens, UniProt P30291)
[3] = biological target: CRKRS (Homo sapiens, UniProt Q9NYV4)
[4] = biological target: T1, ADCK1 (Homo sapiens, UniProt Q86TW2)
T1 sequence (Q86TW2 1-530): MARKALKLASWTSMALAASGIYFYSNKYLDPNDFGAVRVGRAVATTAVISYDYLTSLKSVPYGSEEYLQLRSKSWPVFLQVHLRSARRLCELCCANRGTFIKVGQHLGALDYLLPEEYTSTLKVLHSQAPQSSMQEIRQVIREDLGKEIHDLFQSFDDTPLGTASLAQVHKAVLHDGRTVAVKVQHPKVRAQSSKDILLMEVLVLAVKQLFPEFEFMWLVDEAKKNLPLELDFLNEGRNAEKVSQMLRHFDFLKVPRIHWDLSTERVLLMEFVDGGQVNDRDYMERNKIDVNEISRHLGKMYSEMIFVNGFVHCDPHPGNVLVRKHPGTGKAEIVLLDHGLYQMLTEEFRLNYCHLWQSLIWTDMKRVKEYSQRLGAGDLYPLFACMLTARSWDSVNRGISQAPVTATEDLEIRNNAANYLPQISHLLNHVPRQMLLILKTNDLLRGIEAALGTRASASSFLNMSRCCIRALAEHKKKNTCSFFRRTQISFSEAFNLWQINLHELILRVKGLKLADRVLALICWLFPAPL

[5] = biological target: CSNK2A1 (Homo sapiens, UniProt P68400)
[6] = biological target: STK16 (Homo sapiens, UniProt O75716)
[7] = biological target: CHEK2 (Homo sapiens, UniProt O96017)
[8] = biological target: MAP2K1 (Homo sapiens, UniProt Q02750)
[9] = biological target: T2, ACVR1B (Homo sapiens, UniProt P36896)
T2 sequence (P36896 1-505): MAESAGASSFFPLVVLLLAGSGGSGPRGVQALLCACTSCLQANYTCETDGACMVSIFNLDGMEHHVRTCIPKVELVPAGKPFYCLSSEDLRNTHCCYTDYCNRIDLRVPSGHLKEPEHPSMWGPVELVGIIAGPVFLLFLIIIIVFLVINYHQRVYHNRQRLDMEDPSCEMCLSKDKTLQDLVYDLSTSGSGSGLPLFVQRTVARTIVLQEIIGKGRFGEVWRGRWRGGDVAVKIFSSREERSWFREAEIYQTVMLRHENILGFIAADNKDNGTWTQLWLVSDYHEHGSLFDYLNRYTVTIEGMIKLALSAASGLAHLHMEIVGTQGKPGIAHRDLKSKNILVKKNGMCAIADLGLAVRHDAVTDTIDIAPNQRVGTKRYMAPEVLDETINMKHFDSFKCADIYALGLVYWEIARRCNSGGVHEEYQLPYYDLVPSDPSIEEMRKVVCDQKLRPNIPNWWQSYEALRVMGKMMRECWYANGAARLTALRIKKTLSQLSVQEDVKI

[10] = biological target: T3, MAP2K5 (Homo sapiens, UniProt Q13163)
T3 sequence (Q13163 1-448): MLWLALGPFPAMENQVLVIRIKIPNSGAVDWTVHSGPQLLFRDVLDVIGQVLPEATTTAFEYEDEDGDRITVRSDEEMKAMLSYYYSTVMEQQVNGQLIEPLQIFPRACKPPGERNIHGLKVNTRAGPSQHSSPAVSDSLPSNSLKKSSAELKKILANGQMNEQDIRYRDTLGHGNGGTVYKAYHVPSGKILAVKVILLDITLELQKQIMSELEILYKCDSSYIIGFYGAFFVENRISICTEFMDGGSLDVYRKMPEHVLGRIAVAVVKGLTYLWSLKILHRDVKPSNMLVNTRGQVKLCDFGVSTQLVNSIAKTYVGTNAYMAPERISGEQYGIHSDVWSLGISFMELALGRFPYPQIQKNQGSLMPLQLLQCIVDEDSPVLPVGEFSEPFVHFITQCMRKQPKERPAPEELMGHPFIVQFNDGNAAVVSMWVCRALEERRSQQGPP

Sequence of MAP2K1 (Q02750 whole entry): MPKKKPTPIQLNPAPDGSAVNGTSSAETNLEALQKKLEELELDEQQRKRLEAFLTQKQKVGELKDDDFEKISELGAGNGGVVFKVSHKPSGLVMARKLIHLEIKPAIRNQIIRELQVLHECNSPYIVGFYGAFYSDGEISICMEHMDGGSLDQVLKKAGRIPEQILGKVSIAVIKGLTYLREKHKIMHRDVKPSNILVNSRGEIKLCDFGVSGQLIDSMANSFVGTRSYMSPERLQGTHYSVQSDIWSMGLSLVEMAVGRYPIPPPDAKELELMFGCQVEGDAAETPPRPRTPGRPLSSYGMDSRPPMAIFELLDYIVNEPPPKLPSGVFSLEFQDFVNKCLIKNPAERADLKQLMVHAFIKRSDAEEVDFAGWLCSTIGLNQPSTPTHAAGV
Sequence of WEE1 (P30291 whole entry): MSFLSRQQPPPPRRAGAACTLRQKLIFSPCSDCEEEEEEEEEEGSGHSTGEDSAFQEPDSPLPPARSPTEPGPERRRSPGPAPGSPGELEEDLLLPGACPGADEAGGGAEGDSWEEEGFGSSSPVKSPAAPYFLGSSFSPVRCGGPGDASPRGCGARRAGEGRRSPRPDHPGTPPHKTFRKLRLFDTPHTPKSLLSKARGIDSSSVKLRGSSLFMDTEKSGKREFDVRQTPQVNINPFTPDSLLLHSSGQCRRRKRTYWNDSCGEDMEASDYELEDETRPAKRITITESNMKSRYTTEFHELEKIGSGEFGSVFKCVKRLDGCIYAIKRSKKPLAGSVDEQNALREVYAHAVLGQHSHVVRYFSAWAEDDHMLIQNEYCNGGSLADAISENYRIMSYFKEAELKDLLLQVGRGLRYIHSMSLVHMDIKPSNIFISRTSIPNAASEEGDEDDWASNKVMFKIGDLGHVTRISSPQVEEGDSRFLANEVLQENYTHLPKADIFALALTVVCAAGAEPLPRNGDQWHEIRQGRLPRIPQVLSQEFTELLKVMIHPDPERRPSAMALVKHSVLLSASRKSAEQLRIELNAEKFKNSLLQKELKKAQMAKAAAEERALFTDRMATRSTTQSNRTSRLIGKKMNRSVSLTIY
Sequence of STK16 (O75716 whole entry): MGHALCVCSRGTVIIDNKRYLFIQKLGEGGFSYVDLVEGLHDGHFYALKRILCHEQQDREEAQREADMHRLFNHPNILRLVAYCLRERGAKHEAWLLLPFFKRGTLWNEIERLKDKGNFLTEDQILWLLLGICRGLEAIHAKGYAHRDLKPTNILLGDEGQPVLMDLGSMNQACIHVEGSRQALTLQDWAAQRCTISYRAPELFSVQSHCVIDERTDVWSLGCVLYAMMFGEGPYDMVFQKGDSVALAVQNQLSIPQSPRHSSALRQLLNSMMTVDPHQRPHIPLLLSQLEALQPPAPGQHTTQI
Sequence of EIF2AK4 (Q9P2K8 whole entry): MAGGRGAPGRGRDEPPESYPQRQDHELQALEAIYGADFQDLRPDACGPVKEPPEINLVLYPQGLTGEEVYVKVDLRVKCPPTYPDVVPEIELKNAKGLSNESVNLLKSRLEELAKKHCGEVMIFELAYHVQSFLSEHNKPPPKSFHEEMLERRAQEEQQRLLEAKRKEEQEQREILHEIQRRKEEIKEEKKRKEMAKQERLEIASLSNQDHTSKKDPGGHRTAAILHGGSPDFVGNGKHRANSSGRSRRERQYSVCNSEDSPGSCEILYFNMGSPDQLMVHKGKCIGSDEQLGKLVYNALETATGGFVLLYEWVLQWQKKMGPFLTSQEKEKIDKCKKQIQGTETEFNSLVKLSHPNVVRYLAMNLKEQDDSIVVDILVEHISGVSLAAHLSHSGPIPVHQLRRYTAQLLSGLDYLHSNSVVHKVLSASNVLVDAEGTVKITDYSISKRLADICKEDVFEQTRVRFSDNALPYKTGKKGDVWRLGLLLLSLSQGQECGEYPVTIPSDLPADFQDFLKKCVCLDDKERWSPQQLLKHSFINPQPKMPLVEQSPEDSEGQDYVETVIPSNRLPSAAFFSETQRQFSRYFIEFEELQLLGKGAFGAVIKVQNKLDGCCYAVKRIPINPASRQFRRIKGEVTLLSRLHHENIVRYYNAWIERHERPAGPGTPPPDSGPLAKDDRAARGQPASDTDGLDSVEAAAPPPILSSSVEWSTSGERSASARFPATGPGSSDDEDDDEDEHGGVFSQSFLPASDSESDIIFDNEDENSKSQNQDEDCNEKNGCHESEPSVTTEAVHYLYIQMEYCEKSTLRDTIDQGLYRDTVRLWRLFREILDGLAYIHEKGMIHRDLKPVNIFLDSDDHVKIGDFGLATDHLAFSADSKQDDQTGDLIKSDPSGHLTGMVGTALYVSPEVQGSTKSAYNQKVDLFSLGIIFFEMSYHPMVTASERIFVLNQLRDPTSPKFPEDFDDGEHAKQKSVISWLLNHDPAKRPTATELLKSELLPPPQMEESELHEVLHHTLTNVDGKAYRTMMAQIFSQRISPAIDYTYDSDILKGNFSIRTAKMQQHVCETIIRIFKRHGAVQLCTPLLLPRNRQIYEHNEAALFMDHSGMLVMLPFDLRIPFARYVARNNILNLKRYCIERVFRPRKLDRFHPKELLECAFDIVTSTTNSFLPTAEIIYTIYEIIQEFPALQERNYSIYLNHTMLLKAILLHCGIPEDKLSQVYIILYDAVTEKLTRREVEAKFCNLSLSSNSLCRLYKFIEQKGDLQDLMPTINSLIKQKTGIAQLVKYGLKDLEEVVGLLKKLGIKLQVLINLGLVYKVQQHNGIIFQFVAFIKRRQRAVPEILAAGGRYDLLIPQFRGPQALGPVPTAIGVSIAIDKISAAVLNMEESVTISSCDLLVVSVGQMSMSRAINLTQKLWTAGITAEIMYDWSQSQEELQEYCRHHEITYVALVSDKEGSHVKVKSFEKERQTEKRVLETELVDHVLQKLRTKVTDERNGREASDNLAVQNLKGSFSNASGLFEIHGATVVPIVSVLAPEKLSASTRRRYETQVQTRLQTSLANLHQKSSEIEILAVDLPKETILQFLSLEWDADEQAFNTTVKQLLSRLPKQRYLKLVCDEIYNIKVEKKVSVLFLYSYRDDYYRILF
Sequence of CRKRS (Q9NYV4 whole entry): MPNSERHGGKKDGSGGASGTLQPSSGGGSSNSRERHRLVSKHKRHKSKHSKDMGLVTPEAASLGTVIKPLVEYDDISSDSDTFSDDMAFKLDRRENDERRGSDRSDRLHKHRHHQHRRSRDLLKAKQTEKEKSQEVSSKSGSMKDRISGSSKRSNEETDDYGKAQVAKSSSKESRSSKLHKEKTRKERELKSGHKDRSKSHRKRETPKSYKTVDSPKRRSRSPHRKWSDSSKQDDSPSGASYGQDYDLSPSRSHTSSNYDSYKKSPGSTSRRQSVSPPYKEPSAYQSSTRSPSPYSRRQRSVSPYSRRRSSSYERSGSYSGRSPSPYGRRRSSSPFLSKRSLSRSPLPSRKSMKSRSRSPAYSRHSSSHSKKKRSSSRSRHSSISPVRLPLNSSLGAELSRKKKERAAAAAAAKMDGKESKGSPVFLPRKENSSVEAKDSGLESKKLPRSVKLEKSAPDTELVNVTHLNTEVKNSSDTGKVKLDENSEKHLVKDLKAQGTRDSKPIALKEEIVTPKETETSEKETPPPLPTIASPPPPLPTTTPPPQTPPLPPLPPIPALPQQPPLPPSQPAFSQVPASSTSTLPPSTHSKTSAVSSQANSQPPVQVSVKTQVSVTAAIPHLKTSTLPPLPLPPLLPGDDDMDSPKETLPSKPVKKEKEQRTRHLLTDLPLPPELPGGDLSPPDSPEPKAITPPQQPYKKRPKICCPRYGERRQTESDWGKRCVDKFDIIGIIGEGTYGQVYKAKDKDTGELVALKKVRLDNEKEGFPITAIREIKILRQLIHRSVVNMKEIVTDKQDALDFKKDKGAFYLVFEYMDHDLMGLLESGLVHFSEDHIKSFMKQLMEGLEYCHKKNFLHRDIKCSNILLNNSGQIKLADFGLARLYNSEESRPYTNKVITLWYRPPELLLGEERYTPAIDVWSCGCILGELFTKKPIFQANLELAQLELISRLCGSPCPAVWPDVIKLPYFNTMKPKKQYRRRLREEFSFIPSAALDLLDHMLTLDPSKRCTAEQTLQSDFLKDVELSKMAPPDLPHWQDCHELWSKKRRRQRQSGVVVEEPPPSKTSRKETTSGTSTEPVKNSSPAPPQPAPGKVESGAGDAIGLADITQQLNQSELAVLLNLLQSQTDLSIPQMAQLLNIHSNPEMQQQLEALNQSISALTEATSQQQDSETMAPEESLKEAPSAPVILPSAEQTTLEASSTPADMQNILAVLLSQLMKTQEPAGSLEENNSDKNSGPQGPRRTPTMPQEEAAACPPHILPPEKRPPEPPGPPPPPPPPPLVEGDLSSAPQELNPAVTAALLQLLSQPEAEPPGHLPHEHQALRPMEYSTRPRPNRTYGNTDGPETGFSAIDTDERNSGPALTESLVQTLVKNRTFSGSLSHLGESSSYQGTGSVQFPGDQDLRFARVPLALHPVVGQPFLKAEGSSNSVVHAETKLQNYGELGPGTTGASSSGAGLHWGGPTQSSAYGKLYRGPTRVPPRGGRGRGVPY
Sequence of CHEK2 (O96017 whole entry): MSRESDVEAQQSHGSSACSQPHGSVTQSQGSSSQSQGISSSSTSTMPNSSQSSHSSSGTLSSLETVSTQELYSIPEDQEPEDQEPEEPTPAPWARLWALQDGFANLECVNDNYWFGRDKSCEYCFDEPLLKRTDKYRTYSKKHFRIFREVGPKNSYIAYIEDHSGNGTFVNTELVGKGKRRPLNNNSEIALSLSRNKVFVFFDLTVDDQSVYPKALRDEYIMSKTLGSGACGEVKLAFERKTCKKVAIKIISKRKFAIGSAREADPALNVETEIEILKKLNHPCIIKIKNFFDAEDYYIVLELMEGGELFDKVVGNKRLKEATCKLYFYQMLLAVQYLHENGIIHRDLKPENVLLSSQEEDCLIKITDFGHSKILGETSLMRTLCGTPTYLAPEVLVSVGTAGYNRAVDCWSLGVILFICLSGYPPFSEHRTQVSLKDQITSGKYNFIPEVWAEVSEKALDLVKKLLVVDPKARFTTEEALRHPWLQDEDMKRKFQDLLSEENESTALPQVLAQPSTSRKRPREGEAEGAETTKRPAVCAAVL

Structure (SMILES) | Kd [1] | Kd [2] | Kd [3] [nM] | Kd [4] [nM] | Kd [5] [nM] | Kd [6] | Kd [7] [nM] | Kd [8] | Kd [9] [nM] | Kd [10]
CN(C)CC(O)COc1ccc(Nc2ncc([N+](=O)[O-])c(Nc3ccccc3O)n2)cc1.O=C(O)C(F)(F)F (centres unmarked) [TCMDC-141399] | 182 nM and 245 nM | 209 nM | 1640 | 1180 | 63.5 | 551 nM | 9020 |  |  | 
Cl.NCC1(c2nc(-c3ccc(Cl)c(O)c3)c(-c3ccncc3)[nH]2)CCCCC1 [TCMDC-141154] |  |  |  |  |  |  |  | 8760 nM | 240 | 479 nM
CN1CCN(c2ccc(Nc3ncc(C#N)c(Nc4ccccc4C(N)=O)n3)cc2)CC1.Cl [TCMDC-134116] | 168 nM and 147 nM | 17.3 nM and 16.9 nM | 507 | 654 | 23.5 | 135 nM and 190 nM | 139 | 1630 nM and 1450 nM | 1630 | 218 nM and 283 nM
